Test results from US10954219B2, “1,3-benzodioxole derivative” (DAIICHI SANKYO COMPANY, LIMITED, priority 2014, dated 2021).

Experiments:
PRC2-EZH1 (WT EZH1) = PRC2-EZH1 (WT EZH1) (Homo sapiens, UniProt Q92800); experiment: EZH1 methyltransferase inhibitory activity evaluation
PRC2-EZH2 (WT EZH2) = molecular target: T1, PRC2-EZH2 (WT EZH2) (Homo sapiens, UniProt Q15910); experiment: EZH2 methyltransferase inhibitory activity evaluation; assay type: biochemical; settings: PRC2-EZH2, biotin-H3 peptide, 3H-SAM, 2 hours
T1 construct: made in house

[1] = tested on: Intracellular H3K27me3 in HCT116 cells; experiment: Intracellular H3K27me3 inhibitory activity evaluation; assay type: cell-based; settings: Homo sapiens, HCT-116, 72 h, 3 days, AlphaLISA, read-out: Test Example 3 H3K27me3 inhibition (HCT116) IC50

Chain of PRC2-EZH1 (WT EZH1) (Q92800 whole entry): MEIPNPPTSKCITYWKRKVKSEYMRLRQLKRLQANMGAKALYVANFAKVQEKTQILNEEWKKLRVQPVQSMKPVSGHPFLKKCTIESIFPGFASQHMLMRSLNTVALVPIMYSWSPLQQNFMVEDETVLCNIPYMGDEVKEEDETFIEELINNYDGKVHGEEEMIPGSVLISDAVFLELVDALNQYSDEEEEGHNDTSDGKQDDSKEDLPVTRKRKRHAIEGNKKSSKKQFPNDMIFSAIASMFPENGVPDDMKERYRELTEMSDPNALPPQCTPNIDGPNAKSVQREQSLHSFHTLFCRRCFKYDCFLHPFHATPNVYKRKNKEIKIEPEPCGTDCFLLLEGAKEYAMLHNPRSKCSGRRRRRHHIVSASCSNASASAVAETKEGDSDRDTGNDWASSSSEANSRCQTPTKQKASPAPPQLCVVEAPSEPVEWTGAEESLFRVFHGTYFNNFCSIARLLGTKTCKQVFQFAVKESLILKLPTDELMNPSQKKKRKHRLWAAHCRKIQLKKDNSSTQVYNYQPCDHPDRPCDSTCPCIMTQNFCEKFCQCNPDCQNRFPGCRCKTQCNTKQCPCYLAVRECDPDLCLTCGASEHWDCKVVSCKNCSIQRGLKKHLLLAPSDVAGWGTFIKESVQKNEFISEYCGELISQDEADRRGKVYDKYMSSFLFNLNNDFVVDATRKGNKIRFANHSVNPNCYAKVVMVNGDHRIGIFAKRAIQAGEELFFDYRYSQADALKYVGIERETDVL
Chain of PRC2-EZH1 (WT EZH1) (O75530 whole entry partner): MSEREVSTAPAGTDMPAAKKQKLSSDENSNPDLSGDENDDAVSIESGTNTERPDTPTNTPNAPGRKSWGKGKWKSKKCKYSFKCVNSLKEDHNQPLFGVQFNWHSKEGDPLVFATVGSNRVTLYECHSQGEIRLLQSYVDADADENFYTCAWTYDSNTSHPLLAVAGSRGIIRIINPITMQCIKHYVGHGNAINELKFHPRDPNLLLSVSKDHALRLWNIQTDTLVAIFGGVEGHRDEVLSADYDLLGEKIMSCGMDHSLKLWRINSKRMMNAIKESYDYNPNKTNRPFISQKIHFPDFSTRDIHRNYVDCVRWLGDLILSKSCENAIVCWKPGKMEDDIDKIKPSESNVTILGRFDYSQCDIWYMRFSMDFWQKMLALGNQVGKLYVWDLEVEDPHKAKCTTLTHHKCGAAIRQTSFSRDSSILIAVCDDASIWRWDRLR
Chain of PRC2-EZH1 (WT EZH1) (Q15022 whole entry partner): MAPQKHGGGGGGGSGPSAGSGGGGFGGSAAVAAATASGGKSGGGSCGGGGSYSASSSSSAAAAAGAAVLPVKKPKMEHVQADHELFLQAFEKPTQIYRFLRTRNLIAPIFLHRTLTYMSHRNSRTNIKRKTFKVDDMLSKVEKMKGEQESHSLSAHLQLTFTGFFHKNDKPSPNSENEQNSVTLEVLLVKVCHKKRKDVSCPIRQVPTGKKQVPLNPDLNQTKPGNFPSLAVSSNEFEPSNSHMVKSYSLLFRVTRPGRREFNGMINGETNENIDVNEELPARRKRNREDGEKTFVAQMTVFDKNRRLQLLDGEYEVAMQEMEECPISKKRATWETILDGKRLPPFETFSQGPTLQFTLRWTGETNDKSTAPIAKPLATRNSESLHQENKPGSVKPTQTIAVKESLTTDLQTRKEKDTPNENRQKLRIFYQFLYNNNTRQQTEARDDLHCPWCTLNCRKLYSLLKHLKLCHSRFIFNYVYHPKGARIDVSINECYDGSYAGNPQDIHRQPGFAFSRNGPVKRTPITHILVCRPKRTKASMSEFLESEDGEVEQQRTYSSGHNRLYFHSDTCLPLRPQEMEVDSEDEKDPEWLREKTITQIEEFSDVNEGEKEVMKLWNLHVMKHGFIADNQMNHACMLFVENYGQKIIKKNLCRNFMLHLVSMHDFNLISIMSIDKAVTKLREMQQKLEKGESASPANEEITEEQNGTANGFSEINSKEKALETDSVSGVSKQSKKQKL
Chain of PRC2-EZH1 (WT EZH1) (Q09028 whole entry partner): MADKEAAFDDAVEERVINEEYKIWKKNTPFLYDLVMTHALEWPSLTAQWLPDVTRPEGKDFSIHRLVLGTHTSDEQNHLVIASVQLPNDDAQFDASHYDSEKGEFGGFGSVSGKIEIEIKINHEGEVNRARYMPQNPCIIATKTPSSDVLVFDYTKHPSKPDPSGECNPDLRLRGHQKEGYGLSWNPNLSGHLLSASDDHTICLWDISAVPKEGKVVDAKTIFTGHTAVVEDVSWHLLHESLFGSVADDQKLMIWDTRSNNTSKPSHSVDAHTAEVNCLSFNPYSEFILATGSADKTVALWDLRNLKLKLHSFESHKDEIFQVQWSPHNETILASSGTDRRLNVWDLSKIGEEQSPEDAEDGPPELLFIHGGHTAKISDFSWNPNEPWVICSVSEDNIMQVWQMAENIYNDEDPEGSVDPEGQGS
Chain of PRC2-EZH1 (WT EZH1) (Q6ZN18 whole entry partner): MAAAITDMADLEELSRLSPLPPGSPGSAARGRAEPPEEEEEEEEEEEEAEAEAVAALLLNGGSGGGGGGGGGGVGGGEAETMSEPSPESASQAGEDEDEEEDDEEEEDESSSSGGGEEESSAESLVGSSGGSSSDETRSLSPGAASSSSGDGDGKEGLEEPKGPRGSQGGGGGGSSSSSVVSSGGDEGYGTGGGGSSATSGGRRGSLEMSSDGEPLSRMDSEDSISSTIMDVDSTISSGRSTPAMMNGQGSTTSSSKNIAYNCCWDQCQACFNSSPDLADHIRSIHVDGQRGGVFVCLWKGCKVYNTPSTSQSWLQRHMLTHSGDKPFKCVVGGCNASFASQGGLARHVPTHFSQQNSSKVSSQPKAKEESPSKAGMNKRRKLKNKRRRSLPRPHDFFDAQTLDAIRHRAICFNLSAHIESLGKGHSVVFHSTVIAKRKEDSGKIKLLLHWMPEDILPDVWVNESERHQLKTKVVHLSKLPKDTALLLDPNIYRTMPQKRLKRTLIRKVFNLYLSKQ
T1 sequence (Q15910 whole entry): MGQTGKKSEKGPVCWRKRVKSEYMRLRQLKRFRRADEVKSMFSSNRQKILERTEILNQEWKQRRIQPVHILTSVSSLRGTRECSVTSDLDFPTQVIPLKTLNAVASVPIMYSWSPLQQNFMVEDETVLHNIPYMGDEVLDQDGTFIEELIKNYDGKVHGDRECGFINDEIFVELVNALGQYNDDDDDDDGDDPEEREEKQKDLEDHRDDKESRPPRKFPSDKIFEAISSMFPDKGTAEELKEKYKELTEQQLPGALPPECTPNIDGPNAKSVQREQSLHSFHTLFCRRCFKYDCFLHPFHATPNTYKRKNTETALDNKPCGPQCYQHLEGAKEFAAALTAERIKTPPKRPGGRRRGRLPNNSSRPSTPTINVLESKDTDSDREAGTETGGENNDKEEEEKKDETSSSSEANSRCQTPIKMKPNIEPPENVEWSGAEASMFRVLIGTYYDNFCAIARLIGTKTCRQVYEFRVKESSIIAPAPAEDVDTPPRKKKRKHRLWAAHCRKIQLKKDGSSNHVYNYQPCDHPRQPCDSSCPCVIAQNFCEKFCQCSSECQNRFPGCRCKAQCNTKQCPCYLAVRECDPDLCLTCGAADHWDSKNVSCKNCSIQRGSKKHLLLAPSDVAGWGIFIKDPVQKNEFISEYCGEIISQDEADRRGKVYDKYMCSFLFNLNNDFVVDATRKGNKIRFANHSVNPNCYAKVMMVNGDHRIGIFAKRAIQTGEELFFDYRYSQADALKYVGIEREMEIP
T1 sequence (O75530 whole entry partner): as the sequence (O75530 whole entry partner) above
T1 sequence (Q15022 whole entry partner): as the sequence (Q15022 whole entry partner) above

Compound | IC50 (PRC2-EZH1 (WT EZH1)) [nM] | IC50 (PRC2-EZH2 (WT EZH2)) [nM] | IC50 [1] [nM]
COCCN1CCC([C@@]2(C)Oc3c(Br)cc(C(=O)NCc4c(C)cc(C)[nH]c4=O)c(C)c3O2)CC1 [Example 10, (2R)-7-Bromo-N-[(4,6-dimethyl-2-oxo-1H-pyridin-3-yl)methyl]-2-[l-(2-methoxyethyl)-4-piperidyl]-2,4-dimethyl-1,3-benzodioxole-5-carboxamide] | 130 | 11 | 18
CCCc1cc(C)[nH]c(=O)c1CNC(=O)c1cc(Br)c2c(c1C)O[C@@](C)(C1CCN(CC)CC1)O2 [Example 12, (2R)-7-Bromo-2-(1-ethyl-4-piperidyl)-2,4-dimethyl-N-[(6-methyl-2-oxo-4-propyl-1,2-dihydropyridin-3-yl)methyl]-1,3-benzodioxole-5-carboxamide] | 200 | 28 | 140
Cc1cc(C)c(CNC(=O)c2cc(Br)c3c(c2C)OC(C)(CC2CCN(C)CC2)O3)c(=O)[nH]1 (stereo not drawn) [Example 25, 7-Bromo-N-[(4,6-dimethyl-2-oxo-1,2-dihydropyridin-3-yl)methyl]-2,4-dimethyl-2-[(1-methyl-4-piperidyl)methyl]-1,3-benzodioxole-5-carboxamide] | 110 | 12 | 45
CCN1CCC(CC2(C)Oc3c(Br)cc(C(=O)NCc4c(C)cc(C)[nH]c4=O)c(C)c3O2)CC1 (stereo not drawn) [Example 26, 7-Bromo-N-[(4,6-dimethyl-2-oxo-1,2-dihydropyridin-3-yl)methyl]-2-[(1-ethyl-4-piperidyl)methyl]-2,4-dimethyl-1,3-benzodioxole-5-carboxamide] | 190 | 23 | 37
Cc1cc(C)c(CNC(=O)c2cc(Br)c3c(c2C)O[C@@](C)(CO[C@H]2CCN(C)C2)O3)c(=O)[nH]1 [Example 29, (2R)-7-Bromo-N-[(4,6-dimethyl-2-oxo-1,2-dihydropyridin-3-yl)methyl]-2,4-dimethyl-2-[[(3S)-1-methylpyrrolidin-3-yl]oxymethyl]-1,3-benzodioxole-5-carboxamide] | 68 | 9.4 | 16

Other lines, results leading:

IC50 (PRC2-EZH1 (WT EZH1)) [nM] | IC50 (PRC2-EZH2 (WT EZH2)) [nM] | IC50 [1] [nM] | Compound
180 | 21 | 16 | Cc1cc(C)c(CNC(=O)c2cc(Cl)c3c(c2C)OC(C)(C2CC4(CC(N(C)C)C4)C2)O3)c(=O)[nH]1 (stereo not drawn) [Example 30, 7-Chloro-2-[2-(dimethylamino)spiro[3.3]heptan-6-yl]-N-[(4,6-dimethyl-2-oxo-1,2-dihydropyridin-3-yl)methyl]-2,4-dimethyl-1,3-benzodioxole-5-carboxamide]
110 | 18 | 9 | CCN1CCC([C@@]2(C)Oc3c(Cl)cc(C(=O)NCc4c(C)cc(C)[nH]c4=O)c(C)c3O2)CC1 [Example 31, (2R)-7-Chloro-N-[(4,6-dimethyl-2-oxo-1,2-dihydropyridin-3-yl)methyl]-2-(1-ethyl-4-piperidyl)-2,4-dimethyl-1,3-benzodioxole-5-carboxamide]
57 | 12 | 2.8 | Cc1cc(C)c(CNC(=O)c2cc(Cl)c3c(c2C)OC(C)([C@@H]2CC[C@@H](N(C)C)CO2)O3)c(=O)[nH]1 (stereo partly drawn) [Example 38, 7-Chloro-2-[(2S,5R)-5-(dimethylamino)tetrahydropyran-2-yl]-N-[(4,6-dimethyl-2-oxo-1,2-dihydropyridin-3-yl)methyl]-2,4-dimethyl-1,3-benzodioxole-5-carboxamide]
40 | 14 | 2.2 | COc1cc(C)[nH]c(=O)c1CNC(=O)c1cc(Cl)c2c(c1C)OC(C)([C@@H]1CC[C@@H](N(C)C)CO1)O2 (stereo partly drawn) [Example 39, 7-Chloro-2-[(2S,5R)-5-(dimethylamino)tetrahydropyran-2-yl]-N-[(4-methoxy-6-methyl-2-oxo-1,2-dihydropyridin-3-yl)methyl]-2,4-dimethyl-1,3-benzodioxole-5-carboxamide]
